Measurements published in patent US6541463B1, “Inhibitors of type 5 and type 3 17β-hydroxysteroid dehydrogenase and methods for their use” (Endorecherche, Inc., priority 1998, dated 2003).

Key:
progesterone receptor = test: Progesterone receptor assay: inhibition of [3H]R5020 binding, uterine cytosol; design: species or system rat
Procedure: The manner in which the percentage of inhibition is determined is described in “Other Tests; E-Progesterone Receptor Assay”. Lower numbers are desirable.
[17α-methyl-^3H]-promegestone (R5020) (84 Ci/mmol) and the corresponding unlabeled compound were purchased from New England Nuclear (Lachine, Québec, Canada). All other chemicals were of analytical grade.
Stock solutions of the unlabeled steroids were kept at 4° C. in ethanol. The desired steroid solutions were then prepared by appropriate dilution in buffer B (10 mM Tris-HCl, 1.5 mM EDTA, 10 mM α-monothioglycerol, pH 7.4) containing 30% ethanol.
Female Sprague-Dawley rats weighing 200-300 g were obtained from Charles-River Inc. (St-Constant, Québec, Canada). The rats were gonadectomized under general anesthesia (Isoflurane) and killed by cervical dislocation 24 hours later. The uteri are rapidly removed, dissected free from adhering tissue and frozen on dry-ice. Tissues were kept at −80° C. until use.
All procedures were performed at 4° C. Tissues were pulverized frozen in dry ice with a Thermovac pulverizer. The samples were then homogenized in 10 vol (w/v) of buffer A (25 mM Tris-HCl, 1.5 mM EDTA, 10 mM α-monothioglycerol, 10% glycerol, 10 mM sodium molybdate, pH 7.4) using a Polytron PT-10 homogenizer (Brinkmann Instruments, Canada) at a setting of 5 for two periods of 10 sec, with intervals of 10 sec for cooling. The homogenate was then centrifuged at 105,000×g for 90 min. The supernatant was used immediately for assay.
Progesterone binding was measured using the dextran-coated charcoal adsorption technique. […] Each concentration was done in triplicate. Assay was ended with 300 μl of DCC (1% Norit A and 0.1% Dextran T-70 in Buffer B). After 10 min of incubation, tubes were centrifuged at 2,000×g for 10 min. and decanted in vials with 6 ml of BCS liquid scintillation (New England Nuclear, Dupont). The radioactivity was measured in a Beckman counter at a counting efficiency of 35%.

[1] = system: Shionogi mouse mammary carcinoma cells; test: Androgenic activity: stimulation of proliferation of Shionogi cells; format: cell-based
Procedure: In column 9, the androgenic activity of preferred type 5 inhibitors expressed as the percentage of stimulation of proliferation of Shionogi cells at concentrations of 10^−7 M (left number) and 10^−6 M (right number) of inhibitor. The manner in which the stimulation is determined is described in “Other Tests; B-Androgenic/Antiandrogenic Activity”. Lower numbers are desirable. ND means that a determination was not done.
Androgenic/antiandrogenic activity of some preferred compounds has been measured using the Shionogi mouse mammary carcinoma cells.
Minimal essential culture medium (MEM), non-essential amino acids, and fetal calf serum were purchased from Flow Laboratories. In order to remove endogenous steroids, serum was incubated overnight at 4° C. with 1% activated charcoal (Norit A, Fisher) and 0.1% Dextran T-70 (Pharmacia). A 2-h supplementary adsorption was performed at 25° C. in order to further remove protein-bound steroids. Serum was also inactivated by a 20-min incubation at 56° C.
5α-dihydrotestosterone (DHT) was obtained from Steraloids. The antiandrogen hydroxyflutamide (OH-FLU) was kindly supplied by Drs. T. L. Nagabuschan and R. Neri (Schering Corporation, Kenilworth, U.S.A.).
Shionogi male mice bearing androgen-sensitive mammary tumors were obtained from Drs. Keishi Matsumoto, Osaka, Japan, and Yvonne Lefebvre, Ottawa, Canada. For primary culture, tumors were excised and washed in ice-cold sterile 25 mM Hepes buffer (137 mM NaCl; 5 mM KCl; 0.7 mM Na2HPO4; 10 mM glucose, pH 7.2). After mincing with scissors, the tumor minces were digested for 2 h at 37° C. in Hepes buffer containing 3.8 mg/ml collagenase (Clostridium, Boehringer), 1.5 mg/ml hyaluronidase II (Sigma), and 3% bovine serum albumin fraction V (Schwartz-Mann). Dispersed cells were collected by centrifugation (500×g for 10 min), washed twice by suspension in minimal essential medium (MEM) containing 5% dextran-coated charcoal-treated fetal calf serum (DCC-FCS), 1% non-essential amino acids, 10 IU/ml penicillin, 50 μg/ml streptomycin, and 100 nM dihydrotestosterone (DHT) (Steraloids).
Cells were plated in the same medium at a density of 75 000 cells/ml in 75 cm^2 flasks under an atmosphere of 5% carbon dioxide in air at 37° C. The medium was changed weekly. The steroids and antisteroids were dissolved in ethanol and kept in stock solutions chosen to yield final ethanol concentrations less than 0.01% in the culture medium.
Cells were subcultured at near-confidence by gentle digestion in a solution of 0.1% pancreatin (Flow Laboratories) in Hepes buffer containing 3 mM ethylenediaminetetraacetic acid (EDTA) (pH 7.2). Cells were pelleted by centrifugation, resuspended in culture medium, counted in a Coulter counter, and replated as described above. Soft agar cloning was performed as described (Stanley et al., Cell 10: 35-44, 1977) in the presence of 100 nM DHT.
Cells were plated in 24-well plates at a density of 20 000 cells/well. The indicated increasing concentrations of agents were added to triplicate dishes, and cells were grown for 10-12 days with changes of medium every 3-4 days. Cell number was measured by direct counting in a Coulter counter.
ED50 values of action of DHT and glucocorticoids were calculated according to a least-square regression as described (Rodbard, Endocrinology 94: 1427-1431, 1974). Statistical significance was calculated according to a multiple-range test (Kramer, Biometrics 12: 307-310,1956).

Row | SMILES | Androgenic Activity Shionogi, Basal E^−6 ([1]; Table 4′, E^−6) | Androgenic Activity Shionogi, Basal E^−7 ([1]; Table 4′, E^−7) | also measured
1 | CC1(C)CCC2(CCC3C4CCc5cc(OS(C)(=O)=O)ccc5C4CCC32C)OC1=O (stereo not drawn) [EM-1365-CS] | −28% | 4% | % Inhibition Progesterone Receptor E^−6 (progesterone receptor; Table 4′, E^−6): 2%; % Inhibition Progesterone Receptor E^−8 (progesterone receptor; Table 4′, E^−8): 2%
2 | CC(=O)O[C@]1(C(=O)N(C)C)CCC2C3C=C(C)C4=CC(=O)CC[C@]4(C)C3CC[C@@]21C (stereo partly drawn) [EM-1159] | – | – | % Inhibition Progesterone Receptor (progesterone receptor; E^−6): 4%; % Inhibition Progesterone Receptor (progesterone receptor; E^−8): 2%; Androgenic Activity Shionogi, Basal ([1]; E^−6): −14; Androgenic Activity Shionogi, Basal ([1]; E^−7): 15
3 | COc1cc2c(cc1C)C1CCC3(C)C(CCC34CCC(C)(C)C(=O)O4)C1CC2 (stereo not drawn) [EM-1412-CS] | −11% | 0% | % Inhibition Progesterone Receptor E^−6 (progesterone receptor; Table 4′, E^−6): 0%; % Inhibition Progesterone Receptor E^−8 (progesterone receptor; Table 4′, E^−8): 0%
4 | CN1C(=O)C=C[C@]2(C)C3CC[C@@]4(C)C(CC[C@@]45CCCC(=O)O5)C3CCC12 (stereo partly drawn) [EM-1122-CS] | – | – | % Inhibition Progesterone Receptor E^−6 (progesterone receptor; Table 5 column 14, E^−6): 3%; % Inhibition Progesterone Receptor E^−8 (progesterone receptor; Table 5 column 14, E^−8): 0%; Androgenic Activity Shlonogl, Basal E^−6 ([1]; Table 5 column 9, E^−6): −11%; Androgenic Activity Shlonogl, Basal E^−7 ([1]; Table 5 column 9, E^−7): 0%
5 | CC1CCC2(CCC3C4CCc5cc(O)c([N+](=O)[O-])cc5C4CCC32C)OC1=O [EM-1126, 2-Nitro-1,3,5(10)-estratrien-3-ol-17(R)-spiro-2′-(5′-methyl-6′-oxo)tetrahydropyran] | −8% | 0% | % Inhibition Progesterone Receptor E^−6 (progesterone receptor; Table 4′, E^−6): 14%; % Inhibition Progesterone Receptor E^−8 (progesterone receptor; Table 4′, E^−8): 5%
6 | CN(C)C(=O)c1cc2c(cc1O)CCC1C2CCC2(C)C1CCC21CCC(C)(C)C(=O)O1 (stereo not drawn) [EM-01661-B] | −13% | 0% | –
7 | COCCOc1cc2c(cc1C(=O)OC)C1CC[C@@]3(C)C(CC[C@@]34CCC(C)(C)C(=O)O4)C1CC2 (stereo partly drawn) [EM-1402-CS, 2-Carbomethoxy-3-(2″-methoxyethyloxy)-1,3,5(10)-estratrien 17(R)-spiro-2′-(5′,5′-dimethyl-6′-oxo)tetrahydropyran] | −9% | 0% | % Inhibition Progesterone Receptor E^−6 (progesterone receptor; Table 4′, E^−6): 4%; % Inhibition Progesterone Receptor E^−8 (progesterone receptor; Table 4′, E^−8): 2%
8 | CC1=C[C@@H]2[C@H](CC[C@]3(C)C(=O)C4(CCCCC4)C[C@@H]23)[C@@]2(C)CCC(=O)C=C12 [EM-925] | – | – | Androgenic Activity Shionogi, Basal E^−6 ([1]; E^−6): −4; Androgenic Activity Shionogi, Basal E^−7 ([1]; E^−7): 11
9 | CC1(C)CC[C@@]2(CCC3C4CCc5cc(F)ccc5C4CC[C@@]32C)OC1=O (stereo partly drawn) [EM-1157-CS] | −12% | 16% | % Inhibition Progesterone Receptor E^−6 (progesterone receptor; Table 4′, E^−6): 5%; % Inhibition Progesterone Receptor E^−8 (progesterone receptor; Table 4′, E^−8): 2%
10 | COC(=O)c1cc2c(cc1O)CCC1C2CCC2(C)C1CCC21CCC(C)(C)C(=O)O1 (stereo not drawn) [EM-01662] | −27% | 0% | –
11 | COCCOc1ccc2c(c1)CCC1C2CCC2(C)C1CCC21CCC(C)(C)C(=O)O1 [EM-1368-CS, 3-Methoxyethoxy-1,3,5(10)-estratrien-17(R)-spiro-2′-(5′,5′-dimethyl-6′-oxo)-tetrahydropyran] | −22% | 8% | % Inhibition Progesterone Receptor E^−6 (progesterone receptor; Table 4′, E^−6): 3%; % Inhibition Progesterone Receptor E^−8 (progesterone receptor; Table 4′, E^−8): 0%
12 | C=CCC1CCC2(CCC3C4CCc5cc(O)ccc5C4CCC32C)OC1=O [PB-132-152, 3-Hydroxy-1,3,5(10)-estratrien-17(R)-2′-(5′-allyl-6′-oxo)tetrahydropyran] | 0% | 39% | –
13 | COCCOc1cc2c(cc1F)C1CCC3(C)C(CCC34CCC(C)(C)C(=O)O4)C1CC2 (stereo not drawn) [EM-1393-CS] | −10% | 88% | –
14 | CC1CC(=O)OC2(CCC3C4CCc5cc(O)ccc5C4CCC32C)C1 [PB-132-142, 3-Hydroxy-1,3,5(10)-estratrien-17(R)-spiro-2′-(4′-methyl-6′-oxo)tetrahydropyran] | −17% | 25% | –
15 | CC(=O)O[C@]1(C(C)=O)CCC2C3C=C(C)C4=CC(=O)CC[C@]4(C)C3CC[C@@]21C (stereo partly drawn) [megestrol acetate, reference compound] | – | – | % Inhibition Progesterone Receptor (progesterone receptor; * E^−5): 97* %; % Inhibition Progesterone Receptor (progesterone receptor; * E^−7): 36* %; % Inhibition Progesterone Receptor (progesterone receptor; E^−6): 77%; % Inhibition Progesterone Receptor (progesterone receptor; E^−8): 3%
16 | CC1(C)CCC2(CCC3C4CCc5cc(O)c(C#N)cc5C4CCC32C)OC1=O (stereo not drawn) [EM-01645] | 35% | −5% | –
17 | CC1(C)CCC2(CCC3C4CCc5cc(C(=O)OCc6ccccc6)ccc5C4CCC32C)OC1=O (stereo not drawn) [EM-1398] | −10% | 13% | –
18 | COc1cc2c(cc1C(F)(F)F)C1CCC3(C)C(CCC34CCC(C)(C)C(=O)O4)C1CC2 [EM-1409, 3-Methoxy-2-trifluoromethyl-1,3,5(10)-estratrien-17(R)-spiro-2′-(5′,5′-dimethyl-6′-oxo)tetrahydropyran] | −23% | 5% | –
19 | CC1(C)CCC2(CCC3C4CCc5cc(O)c(C(N)=O)cc5C4CCC32C)OC1=O (stereo not drawn) [EM-01660] | −31% | −4% | –
20 | CC12CCC3c4ccc(O)cc4CCC3C1CCC21CC=CC(=O)O1 [PB-132-140, 3-hydroxy-1,3,5(10)-estratrien-17(R)-spiro-2′-(4′,5′-dihydro-6′-oxo)pyran] | −18% | 30% | –
21 | COC(=O)C1CCC2(CCC3C4CCc5cc(O)ccc5C4CCC32C)OC1=O [PB-132-146, 3-Hydroxy-1,3,5(10)-estratrien-17(R)-2′-(5′-methoxycarbonyl-6′-oxo)tetrahydropyran] | 0% | 29% | –
